Biological target: T1, flavohemoglobin (gFlHb) (Giardia duodenalis, UniProt E2RTZ4)
T1 construct: gene hmpA; recombinant gFlHb fused to an N-terminal His6-tag
Assay: UV-visible spectral titration of ferric heme at […] nm (also stimulates NADH oxidase activity)
Format: binding

T1 sequence (E2RTZ4 whole entry, the tested form may be a part): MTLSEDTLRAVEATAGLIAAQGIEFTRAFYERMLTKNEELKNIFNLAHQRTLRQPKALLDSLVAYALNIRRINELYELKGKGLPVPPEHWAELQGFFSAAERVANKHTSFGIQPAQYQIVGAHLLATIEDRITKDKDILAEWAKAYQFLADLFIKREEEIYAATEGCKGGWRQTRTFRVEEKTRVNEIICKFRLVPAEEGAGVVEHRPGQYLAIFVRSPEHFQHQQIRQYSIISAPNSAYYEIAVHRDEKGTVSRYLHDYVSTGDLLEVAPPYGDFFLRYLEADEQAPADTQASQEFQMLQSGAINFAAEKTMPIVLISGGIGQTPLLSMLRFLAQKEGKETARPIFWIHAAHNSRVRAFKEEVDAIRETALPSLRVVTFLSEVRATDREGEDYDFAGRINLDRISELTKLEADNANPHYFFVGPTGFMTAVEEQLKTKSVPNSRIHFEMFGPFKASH

Question: CCCSc1ccc2nc(NC(=O)OC)[nH]c2c1 [ABZ, albendazole] was tested. Which Kd did it give?
Answer: 23 ± 9 nM

Question: With CCC[S+]([O-])c1ccc2[nH]c(NC(=O)OC)nc2c1 (centres unmarked) [ABZSO, albendazole sulfoxide] as the compound, how does the Kd read?
Answer: 19 ± 8 nM

— paper PMC9514659, “Giardia duodenalis: Flavohemoglobin is involved in drug biotransformation and resistance to albendazole” (PLoS Pathogens, 2022)
